Data published in ChEMBL document CHEMBL4038272, “Synthesis and biological evaluation of novel podophyllotoxin-NSAIDs conjugates as multifunctional anti-MDR agents against resistant human hepatocellular carcinoma Bel-7402/5-FU cells” (Eur J Med Chem, 2017).
The source made the active and inactive calls. The rule behind the calls is not given here.

Key:
Bel7402/5-FU [1] = assay: Induction of apoptosis in human Bel7402/5-FU cells assessed as ratio of cleaved PARP to beta-actin level at 0.1 uM after 48 hrs by Western blot analysis (reference value: 0.2); format: functional
[2] = Resistant factor, ratio of IC50 for human Bel7402/5-FU cells to IC50 for human Bel7402 cells; format: functional
Bel7402/5-FU [3] = assay: Effect on VEGFR2 expression in human Bel7402/5-FU cells assessed as ratio of VEGFR2 to beta-actin level at 0.1 uM after 48 hrs by Western blot analysis (reference value: 0.25); format: functional
L02 = assay: Antiproliferative activity against human LO2 cells after 72 hrs by CCK-8 assay; format: cell-based; conditions: L02, 72 h
Bel7402/5-FU [4] = assay: Induction of apoptosis in human Bel7402/5-FU cells assessed as ratio of cleaved caspase-8 to beta-actin level at 0.1 uM after 48 hrs by Western blot analysis (reference value: 0.17); format: functional
Bel7402/5-FU [5] = assay: Effect on MMP2 expression in human Bel7402/5-FU cells assessed as ratio of MMP2 to beta-actin level at 0.1 uM after 48 hrs by Western blot analysis (reference value: 0.3); format: functional
Bel7402/5-FU [6] = assay: Induction of apoptosis in human Bel7402/5-FU cells assessed as condensed nuclei at 0.1 uM after 24 hrs by Hoechst 33342 staining based fluorescent microscopic method; format: functional, cell-based
Bel7402/5-FU [7] = assay: Effect on cyclinA expression in human Bel7402/5-FU cells assessed as ratio of cyclinA to beta-actin level at 0.1 uM after 48 hrs by Western blot analysis (reference value: 0.39); format: functional
[8] = molecular target: Mitogen-activated protein kinase; ERK1/ERK2 (Homo sapiens) (UniProt P27361+P28482); assay: Effect on ERK1/2 phosphorylation in human Bel7402/5-FU cells assessed as ratio of phosphorylated ERK1/2 to beta-actin level at 0.1 uM after 48 hrs by Western blot analysis (reference value: 0.59); format: cell-based
Chain of Mitogen-activated protein kinase; ERK1/ERK2 (Homo sapiens) (P27361 whole entry, looked up): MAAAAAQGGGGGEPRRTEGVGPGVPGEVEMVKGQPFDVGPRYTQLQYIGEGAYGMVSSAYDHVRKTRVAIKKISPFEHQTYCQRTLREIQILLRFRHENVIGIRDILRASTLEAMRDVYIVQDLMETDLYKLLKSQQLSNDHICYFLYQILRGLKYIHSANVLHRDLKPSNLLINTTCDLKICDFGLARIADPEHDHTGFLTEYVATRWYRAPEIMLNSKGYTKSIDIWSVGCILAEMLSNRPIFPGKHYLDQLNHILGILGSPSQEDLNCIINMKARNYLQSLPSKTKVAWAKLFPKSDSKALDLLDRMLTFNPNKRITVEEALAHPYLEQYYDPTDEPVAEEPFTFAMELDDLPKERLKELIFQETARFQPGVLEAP
Chain of Mitogen-activated protein kinase; ERK1/ERK2 (Homo sapiens) (P28482 whole entry, looked up): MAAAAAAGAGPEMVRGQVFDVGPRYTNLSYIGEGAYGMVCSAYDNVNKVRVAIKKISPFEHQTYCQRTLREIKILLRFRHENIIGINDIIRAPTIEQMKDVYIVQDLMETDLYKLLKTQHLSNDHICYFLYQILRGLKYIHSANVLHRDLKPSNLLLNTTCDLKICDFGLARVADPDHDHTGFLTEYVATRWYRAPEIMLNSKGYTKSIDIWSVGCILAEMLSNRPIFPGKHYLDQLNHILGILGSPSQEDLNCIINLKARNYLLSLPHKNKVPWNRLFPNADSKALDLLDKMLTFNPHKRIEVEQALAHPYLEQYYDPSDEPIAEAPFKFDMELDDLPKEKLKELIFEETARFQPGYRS

Bel7402/5-FU [9] = assay: Effect on COX2 expression in human Bel7402/5-FU cells assessed as ratio of COX2 to beta-actin level at 0.1 uM after 48 hrs by Western blot analysis (reference value: 0.36); format: functional
Bel7402/5-FU [10] = assay: Antimigratory activity in human Bel7402/5-FU cells at 0.1 uM after 24 hrs by wound healing assay; format: functional, cell-based
[11] = molecular target: Signal transducer and activator of transcription 3 (Homo sapiens) (UniProt P40763); assay: Effect on STAT3 phosphorylation in human Bel7402/5-FU cells assessed as ratio of phosphorylated STAT3 to beta-actin level at 0.1 uM after 48 hrs by Western blot analysis (reference value: 0.3); format: cell-based
Chain of Signal transducer and activator of transcription 3 (Homo sapiens) (P40763 whole entry): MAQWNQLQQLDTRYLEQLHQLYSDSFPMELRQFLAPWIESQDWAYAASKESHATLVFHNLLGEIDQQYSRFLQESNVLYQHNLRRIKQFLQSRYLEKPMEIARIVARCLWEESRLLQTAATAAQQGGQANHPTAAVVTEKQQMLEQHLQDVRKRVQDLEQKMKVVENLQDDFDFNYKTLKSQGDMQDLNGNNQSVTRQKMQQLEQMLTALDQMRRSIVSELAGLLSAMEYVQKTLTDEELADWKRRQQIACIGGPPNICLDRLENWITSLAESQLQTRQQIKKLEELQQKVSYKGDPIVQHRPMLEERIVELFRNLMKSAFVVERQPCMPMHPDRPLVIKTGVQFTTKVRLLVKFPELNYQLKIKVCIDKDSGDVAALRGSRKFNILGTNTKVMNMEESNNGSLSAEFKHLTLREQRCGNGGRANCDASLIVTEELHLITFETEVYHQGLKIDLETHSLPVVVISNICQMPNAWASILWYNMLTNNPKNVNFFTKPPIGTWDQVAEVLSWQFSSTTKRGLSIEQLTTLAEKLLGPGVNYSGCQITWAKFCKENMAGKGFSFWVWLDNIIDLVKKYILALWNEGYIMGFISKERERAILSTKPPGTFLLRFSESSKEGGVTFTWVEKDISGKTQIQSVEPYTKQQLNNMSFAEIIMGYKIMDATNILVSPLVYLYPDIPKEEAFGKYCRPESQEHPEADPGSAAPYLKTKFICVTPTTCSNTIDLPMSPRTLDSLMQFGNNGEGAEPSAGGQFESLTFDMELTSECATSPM

Bel7402/5-FU [12] = assay: Induction of apoptosis in human Bel7402/5-FU cells assessed as morphological changes at 0.1 uM after 24 hrs by Hoechst 33342 staining based fluorescent microscopic method; format: functional, cell-based
Bel7402/5-FU [13] = assay: Induction of apoptosis in human Bel7402/5-FU cells assessed as necrotic cells at 0.1 uM after 48 hrs by Annexin V-APC/7-AAD staining based flow cytometry (reference value: 0.58%); format: functional
Bel7402/5-FU [14] = assay: Induction of apoptosis in human Bel7402/5-FU cells at 0.1 uM after 24 hrs by Hoechst 33342 staining based fluorescent microscopic method; format: functional, cell-based
[15] = molecular target: RAC-alpha serine/threonine-protein kinase (Homo sapiens) (UniProt P31749); assay: Effect on AKT phosphorylation in human Bel7402/5-FU cells assessed as ratio of phosphorylated AKT to beta-actin level at 0.1 uM after 48 hrs by Western blot analysis (reference value: 0.39); format: cell-based
Chain of RAC-alpha serine/threonine-protein kinase (Homo sapiens) (P31749 whole entry): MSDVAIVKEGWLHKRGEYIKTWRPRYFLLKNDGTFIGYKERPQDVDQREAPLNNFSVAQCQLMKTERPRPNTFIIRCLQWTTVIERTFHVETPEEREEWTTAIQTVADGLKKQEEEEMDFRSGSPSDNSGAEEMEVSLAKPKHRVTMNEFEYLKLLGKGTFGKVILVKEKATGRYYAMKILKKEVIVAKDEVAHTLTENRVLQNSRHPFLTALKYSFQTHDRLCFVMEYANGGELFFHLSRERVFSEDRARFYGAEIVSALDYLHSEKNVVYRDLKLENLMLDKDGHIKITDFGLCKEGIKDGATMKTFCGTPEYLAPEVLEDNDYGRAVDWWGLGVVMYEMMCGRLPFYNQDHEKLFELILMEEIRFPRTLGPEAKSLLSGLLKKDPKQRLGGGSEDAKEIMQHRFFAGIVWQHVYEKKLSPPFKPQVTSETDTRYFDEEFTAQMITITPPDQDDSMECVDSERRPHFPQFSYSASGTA

Bel7402/5-FU [16] = assay: Induction of apoptosis in human Bel7402/5-FU cells assessed as ratio of cleaved caspase-3 to beta-actin level at 0.1 uM after 48 hrs by Western blot analysis (reference value: 0.19); format: functional
Bel7402/5-FU [17] = assay: Antiproliferative activity against human Bel7402/5-FU cells after 72 hrs by CCK-8 assay; format: functional, cell-based
Bel7402/5-FU [18] = assay: Effect on P-gp expression in human Bel7402/5-FU cells assessed as ratio of P-gp to beta-actin level at 0.1 uM after 48 hrs by Western blot analysis (reference value: 0.59); format: functional
Bel7402/5-FU [19] = assay: Effect on CDK2 expression in human Bel7402/5-FU cells assessed as ratio of CDK2 to beta-actin level at 0.1 uM after 48 hrs by Western blot analysis (reference value: 0.43); format: functional
Bel7402/5-FU [20] = assay: Induction of apoptosis in human Bel7402/5-FU cells assessed as reduction in cell number at 0.1 uM after 24 hrs by Hoechst 33342 staining based fluorescent microscopic method; format: functional
Bel7402/5-FU [21] = assay: Reduction in microtubule density in human Bel7402/5-FU cells at 0.1 uM after 24 to 48 hrs by DAPI staining based immunofluorescence microscopic method; format: functional, cell-based
Bel7402/5-FU [22] = assay: Effect on E-cadherin expression in human Bel7402/5-FU cells assessed as ratio of E-cadherin to beta-actin level at 0.1 uM after 48 hrs by Western blot analysis (reference value: 0.2); format: functional
Bel7402/5-FU [23] = assay: Effect on iNOS expression in human Bel7402/5-FU cells assessed as ratio of iNOS to beta-actin level at 0.1 uM after 48 hrs by Western blot analysis (reference value: 0.13); format: functional
Bel7402/5-FU [24] = assay: Induction of apoptosis in human Bel7402/5-FU cells assessed as ratio of cleaved caspase-9 to beta-actin level at 0.1 uM after 48 hrs by Western blot analysis (reference value: 0.17); format: functional
Bel7402/5-FU [25] = assay: Effect on COX1 expression in human Bel7402/5-FU cells assessed as ratio of COX1 to beta-actin level at 0.1 uM after 48 hrs by Western blot analysis (reference value: 0.48); format: functional
Bel7402/5-FU [26] = assay: Induction of microtubule disruption in human Bel7402/5-FU cells at 0.1 uM after 24 to 48 hrs by DAPI staining based immunofluorescence microscopic method; format: functional, cell-based
Bel7402/5-FU [27] = assay: Effect on CDK1 expression in human Bel7402/5-FU cells assessed as ratio of CDK1 to beta-actin level at 0.1 uM after 48 hrs by Western blot analysis (reference value: 0.33); format: functional
Bel7402/5-FU [28] = assay: Effect on MRP1 expression in human Bel7402/5-FU cells assessed as ratio of MRP1 to beta-actin level at 0.1 uM after 48 hrs by Western blot analysis (reference value: 0.58); format: functional
Bel7402/5-FU [29] = assay: Induction of apoptosis in human Bel7402/5-FU cells assessed as early apoptotic cells at 0.1 uM after 48 hrs by Annexin V-APC/7-AAD staining based flow cytometry (reference value: 5.24%); format: functional
Bel7402/5-FU [30] = assay: Induction of apoptosis in human Bel7402/5-FU cells assessed as late apoptotic cells at 0.1 uM after 48 hrs by Annexin V-APC/7-AAD staining based flow cytometry (reference value: 3%); format: functional
Bel-7402 = assay: Antiproliferative activity against human Bel7402 cells after 72 hrs by CCK-8 assay; format: functional, cell-based; conditions: Bel-7402, 72 h
Bel7402/5-FU [31] = assay: Induction of apoptosis in human Bel7402/5-FU cells assessed as live cells at 0.1 uM after 48 hrs by Annexin V-APC/7-AAD staining based flow cytometry (reference value: 91.08%); format: functional
Bel7402/5-FU [32] = assay: Cell cycle arrest in human Bel7402/5-FU cells assessed as accumulation at S phase at 0.1 uM after 48 hrs by propidium iodide staining based flow cytometry (reference value: 12.62%); format: functional
Bel7402/5-FU [33] = assay: Cell cycle arrest in human Bel7402/5-FU cells assessed as accumulation at G1 phase at 0.1 uM after 48 hrs by propidium iodide staining based flow cytometry (reference value: 52.21%); format: functional
Bel7402/5-FU [34] = assay: Effect on cyclinB1 expression in human Bel7402/5-FU cells assessed as ratio of cyclinB1 to beta-actin level at 0.1 uM after 48 hrs by Western blot analysis (reference value: 0.53); format: functional
Bel7402/5-FU [35] = assay: Cell cycle arrest in human Bel7402/5-FU cells assessed as accumulation at G2 phase at 0.1 uM after 48 hrs by propidium iodide staining based flow cytometry (reference value: 35.16%); format: functional

SMILES: COc1cc([C@@H]2c3cc4c(cc3[C@H](OC(=O)c3ccccc3OC(C)=O)[C@H]3COC(=O)[C@H]23)OCO4)cc(OC)c1OC
- Ratio (Bel7402/5-FU [1]): 0.47
- Ratio IC50 [2]: 0.32
- Ratio (Bel7402/5-FU [3]): 0.1
- IC50 (L02): 0.09 µM
- Ratio (Bel7402/5-FU [4]): 0.57
- Ratio (Bel7402/5-FU [5]): 0.16
- Activity (Bel7402/5-FU [6]): Active
- Ratio (Bel7402/5-FU [7]): 0.2
- Ratio [8]: 0.19
- Ratio (Bel7402/5-FU [9]): 0.14
- Activity (Bel7402/5-FU [10]): Active
- Ratio [11]: 0.17
- Activity (Bel7402/5-FU [12]): Active
- Activity (Bel7402/5-FU [13]): 5.23%
- Activity (Bel7402/5-FU [14]): Active
- Ratio [15]: 0.29
- Ratio (Bel7402/5-FU [16]): 0.53
- IC50 (Bel7402/5-FU [17]): 0.065 µM
- Ratio (Bel7402/5-FU [18]): 0.52
- Ratio (Bel7402/5-FU [19]): 0.39
- Activity (Bel7402/5-FU [20]): Active
- Activity (Bel7402/5-FU [21]): Active
- Ratio (Bel7402/5-FU [22]): 0.31
- Ratio (Bel7402/5-FU [23]): 0.16
- Ratio (Bel7402/5-FU [24]): 0.57
- Ratio (Bel7402/5-FU [25]): 0.31
- Activity (Bel7402/5-FU [26]): Active
- Ratio (Bel7402/5-FU [27]): 0.28
- Ratio (Bel7402/5-FU [28]): 0.31
- Activity (Bel7402/5-FU [29]): 5.45%
- Activity (Bel7402/5-FU [30]): 24.2%
- IC50 (Bel-7402): 0.199 µM
- Activity (Bel7402/5-FU [31]): 65.12%
- Activity (Bel7402/5-FU [32]): 24.69%
- Activity (Bel7402/5-FU [33]): 17.03%
- Ratio (Bel7402/5-FU [34]): 0.09
- Activity (Bel7402/5-FU [35]): 58.28%

SMILES: COc1ccc2c(c1)c(CC(=O)O)c(C)n2C(=O)c1ccc(Cl)cc1 [INDOMETHACIN]
- IC50 (L02): > 100 µM
- IC50 (Bel7402/5-FU [17]): > 100 µM
- IC50 (Bel-7402): > 100 µM

SMILES: O=c1[nH]cc(F)c(=O)[nH]1 [FLUOROURACIL]
- Ratio IC50 [2]: >16.83
- IC50 (L02): 32.5 µM
- IC50 (Bel7402/5-FU [17]): > 100 µM
- IC50 (Bel-7402): 5.94 µM

SMILES: CC(=O)Oc1ccccc1C(=O)O [ASPIRIN]
- IC50 (L02): > 100 µM
- IC50 (Bel7402/5-FU [17]): > 100 µM
- IC50 (Bel-7402): > 100 µM

SMILES: CC(C)Cc1ccc(C(C)C(=O)O)cc1 (stereo not given) [IBUPROFEN]
- IC50 (L02): > 100 µM
- IC50 (Bel7402/5-FU [17]): > 100 µM
- IC50 (Bel-7402): > 100 µM
